One series relates to Liver. The series is described as follows: Metabolic stability in mouse liver microsomes assessed as compound remaining. (In general: Microsomes from liver hold many membrane-bound enzymes, among them those of drug oxidation.)
The target in another series is T1, Glucocorticoid receptor (Homo sapiens, UniProt P04150).
T1 sequence (P04150 whole entry): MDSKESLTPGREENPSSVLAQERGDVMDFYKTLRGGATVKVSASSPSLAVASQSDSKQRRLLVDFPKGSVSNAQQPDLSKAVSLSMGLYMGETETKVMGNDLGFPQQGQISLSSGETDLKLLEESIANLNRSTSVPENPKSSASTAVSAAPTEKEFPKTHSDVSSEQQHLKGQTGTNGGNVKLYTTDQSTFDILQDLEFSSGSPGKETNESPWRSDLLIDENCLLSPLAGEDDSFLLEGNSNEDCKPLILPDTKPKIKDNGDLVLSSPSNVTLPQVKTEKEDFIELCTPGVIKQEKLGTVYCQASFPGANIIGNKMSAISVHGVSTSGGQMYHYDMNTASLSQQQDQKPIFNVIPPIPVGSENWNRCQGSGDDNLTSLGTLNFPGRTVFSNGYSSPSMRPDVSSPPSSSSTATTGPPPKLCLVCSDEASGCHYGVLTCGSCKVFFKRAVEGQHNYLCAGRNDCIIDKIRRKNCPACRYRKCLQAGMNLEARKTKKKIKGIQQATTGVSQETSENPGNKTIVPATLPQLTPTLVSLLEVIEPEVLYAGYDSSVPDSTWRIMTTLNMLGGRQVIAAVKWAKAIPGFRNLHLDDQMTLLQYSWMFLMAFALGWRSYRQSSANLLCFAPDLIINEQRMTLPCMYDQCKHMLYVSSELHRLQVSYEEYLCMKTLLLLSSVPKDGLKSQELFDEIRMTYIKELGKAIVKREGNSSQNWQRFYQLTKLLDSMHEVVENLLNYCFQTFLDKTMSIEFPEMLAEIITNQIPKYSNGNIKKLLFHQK
Nature of the series: Agonist activity at glucocorticoid receptor in human A549 cells assessed as E-selectin transrepression by luciferase reporter gene assay. Format: cell-based. (In general: In a reporter assay the amount or activity of a reporter protein is the signal.)

In the next series the test system is Liver microsome. Nature of the series: Metabolic stability in human liver microsomes assessed as compound remaining.

1 compound from ChEMBL document CHEMBL3351663, “Discovery of acylurea isosteres of 2-acylaminothiadiazole in the azaxanthene series of glucocorticoid receptor agonists” (Bioorg Med Chem Lett, 2014) can be followed below.

SMILES strings stand for the structures.

The term EC50 denotes the concentration needed to bring the measured effect to its halfway point. With `CC(C)(C(=O)NC(N)=O)[C@@H]1c2ccc(-c3ccc(C(=O)N4CCOCC4)cc3)nc2Oc2c(F)cccc21`, the Stability was 80% in the series on Liver and 83% with Liver microsome. For the same compound, at Glucocorticoid receptor, the EC50 amounted to 1.2 nM.
